Results: US8273775B2, “Non-steroidal brassinosteroid mimetic” (priority 2006, dated 2012)

System: gene expression in Col-0 seedling shoots
Assay: Microarray analysis (ATH1 Affymetrix) after BL or abrasin treatment
Assay type: in vivo, Arabidopsis
Conditions: 120 min
Experimental: FIG. 14: Clustering of gene expression profiles by QT-clust analysis. Clusters illustrating the major patterns of the data sets. Points: BIK-30: 30 μM abrasin 30 min; BL-30: 1 μM brassinolide 30 min; DMSO-30: control DMSO 30 min; BIK-120: 30 μM abrasin 120 min; BL-120: 1 μM brassinolide 120 min; DMSO-120: control DMSO 120 min.
Col-0 seeds were germinated vertically on ½ MS medium for 7 days under 16 h light/8 h dark cycles. The seedlings were overlaid with liquid ½ MS medium containing 1 μM brassinolide (BL, Fuji Chemical Industries, Ltd., Toyama, Japan), 30 μM abrasin (BIK, ChemBridge Corporation) and DMSO and treated for 30 and 120 min. The shoot parts were collected for RNA isolation. All sampling points were performed in three independent experiments. RNA was extracted using RNeasy kit (Qiagene). […] total RNA per array was used to hybridise the ATH1 Affymetrix Arabidopsis arrays according to standard procedure. The overrepresentation analyses were performed using BiNGO software (Maere et al., 2005).
We performed a microarray analysis using the Arabidopsis whole genome chip (Affymetix) to determine whether abrasin activated the expression of BR-inducible genes at transcriptional level. Wild-type Col-0 seedlings were exposed to 1 μM BL, 30 μM ABRASIN and DMSO (mock-treatment) for two time points (30 min and 120 min) and the shoot parts were collected for RNA isolation. The analysis of the variance of the normalized gene expression data took in account the variability parameters affecting the expression level: type of hormone treatment, duration of treatment and the interaction between these two.

## O=C(O)CCC(=O)Nc1ccc(Br)cn1 [abrasin, 4-[(5-bromo-2-pyridinyl)amino]-4-oxobutanoic acid]
  Fold-change AT2G26530 expressed protein: 1.99
  Fold-change AT2G26710 cytochrome p450 family (BAS1): 2.26
  Fold-change AT2G28510 Dof-type zinc finger domain-containing protein: 1.19
  Fold-change AT2G29340 short-chain dehydrogenase/reductase (SDR) family protein: 3.73
  Fold-change AT2G29990 pyridine nucleotide-disulphide oxidoreductase family protein: 1.38
  Fold-change AT2G30070 potassium transporter (KUP1): 0.22
  Fold-change AT2G31230 encodes a member of the ERF (ethylene response factor): 3.17
  Fold-change AT2G34650 protein kinase PINOID (PID): 2.52
  Fold-change AT2G36220 expressed protein: 2.76
  Fold-change AT2G37590 Dof-type zinc finger domain-containing protein: 5.81
  Fold-change AT2G38470 WRKY family transcription factor: 1.34
  Fold-change AT2G39710 aspartyl protease family protein: 2.52
  Fold-change AT2G40340; AT2G40350 [AT2G40340, encodes a member of the DREB subfamily A-2 of ERF/AP2: 3.20
  Fold-change AT2G41250 haloacid dehalogenase-like hydrolase family protein: 0.33
  Fold-change AT2G41640 expressed protein: 2.53
  Fold-change AT2G42280 basic helix-loop-helix (bHLH) family protein: 0.28
  Fold-change AT2G43060 expressed protein, similar to cDNA bHLH transcription factor: 0.25
  Fold-change AT2G43280 far-red impaired responsive family protein: 0.48
  Fold-change AT2G43290 calmodulin-like protein (MSS3): 1.45
  Fold-change AT2G44130 kelch repeat-containing F-box family protein: 7.72
  Fold-change AT2G44500 expressed protein: 2.19
  Fold-change AT2G45210 auxin-responsive protein-related: 0.24
  Fold-change AT2G45680 TCP family transcription factor: 0.46
  Fold-change AT2G46225 Encodes a subunit of the WAVE complex: 0.58
  Fold-change AT2G47440 DNAJ heat shock N-terminal domain-containing protein: 1.64
  Fold-change AT3G04210 disease resistance protein (TIR-NBS class), putative,: 3.17
  Fold-change AT3G09920 phosphatidylinositol-4-phosphate 5-kinase family protein: 1.07
  Fold-change AT3G12920 expressed protein: 0.31
  Fold-change AT3G13040 myb family transcription factor: 0.48
  Fold-change AT3G13510 expressed protein: 0.42
  Fold-change AT3G13980 expressed protein: 0.08
  Fold-change AT3G14370 protein kinase family protein: 2.16
  Fold-change AT3G14560 expressed protein: 0.35
  Fold-change AT3G16570 rapid alkalinization factor (RALF) family protein: 0.36
  Fold-change AT3G17860 expressed protein: 0.45
  Fold-change AT3G18830 polyol/cyclitol/monosaccharide-H+-symporte: 2.60
  Fold-change AT3G19380 U-box domain-containing protein: 0.48
  Fold-change AT3G23030 auxin-responsive protein/indoleacetic acid-induced protein 2 (IAA2): 0.25
  Fold-change AT3G23550 MATE efflux family protein: 0.38
  Fold-change AT3G25710 basic helix-loop-helix (bHLH) family protein: 0.10
  Fold-change AT3G25900 homocysteine S-methyltransferase 1 (HMT-1): 2.67
  Fold-change AT3G26910 hydroxyproline-rich glycoprotein family protein: 1.85
  Fold-change AT3G30180 cytochrome p450 enzyme: 0.06
  Fold-change AT3G46880 expressed protein,: 1.51
  Fold-change AT3G47800 aldose 1-epimerase family protein: 0.57
  Fold-change AT3G48970 copper-binding family protein: 0.38
  Fold-change AT3G49810 U-box domain-containing protein: 1.12
  Fold-change AT3G50650 scarecrow-like transcription factor 7 (SCL7): 2.48
  Fold-change AT3G50660 steroid 22-alpha-hydroxylase (CYP90B1) (DWF4): 0.02
  Fold-change AT3G50750 brassinosteroid signalling positive regulator-related (BEH1): 0.31
  Fold-change AT3G52490 heat shock protein-related: 2.41
  Fold-change AT3G53810 lectin protein kinase: 2.23
  Fold-change AT3G54950 patatin-related,: 0.43
  Fold-change AT3G55120 chalcone-flavanone isomerase: 0.39
  Fold-change AT3G55150 exocyst subunit EXO70 family protein: 0.48
  Fold-change AT3G55840 expressed protein: 6.96
  Fold-change AT3G61460 zinc finger (C3HC4-type RING finger) family protein (BRH1): 0.32
  Fold-change AT3G63300 expressed protein: 2.07
  Fold-change AT4G01680 myb family transcription factor (MYB55): 0.14
  Fold-change AT4G02410 lectin protein kinase family protein: 1.55
  Fold-change AT4G08040 1-aminocyclopropane-1-carboxylate synthase, putative: 0.02
  Fold-change AT4G09460 myb family transcription factor: 3.27
  Fold-change AT4G12390 invertase/pectin methylesterase inhibitor family protein: 0.44
  Fold-change AT4G12410 auxin-responsive family protein: 0.31
  Fold-change AT4G14130 xyloglucan:xyloglucosyl transferase: 0.02
  Fold-change AT4G15975 zinc finger (C3HC4-type RING finger) family protein: 3.28
  Fold-change AT4G16146 expressed protein: 0.49
  Fold-change AT4G16563 aspartyl protease family protein: 1.65
  Fold-change AT4G16670 expressed protein: 0.34
